Reference: paper PMC5149032, “Secondary Metabolites and Biological Activities of Talaromyces sp. LGT-2, an Endophytic Fungus from Tripterygium Wilfordii” (Iranian Journal of Pharmaceutical Research : IJPR, 2016)

Target: monoamine oxidase (MAO), isoform not stated
Experiment: MAO inhibition assay (procedure cited to earlier paper; enzyme source not given)
Assay type: biochemical

IC50: 61 µM
Compound: O=CN/C=C\c1ccc(O)cc1 [compound 11, (Z)-N-(4-hydroxystyryl)formamide]
